Assay results: the NIST ThermoML archive (doi:10.1016/j.jct.2013.09.005)
Numbers after ± are expanded uncertainties.

How the values were obtained:
[1] = 303.15 K, 101.33 kPa, Liquid; for viscosity: Capillary tube (Ostwald / Ubbelohde) method; for speed of sound: Linear variable-path acoustic interferometer; for mass density: Pycnometric method
[2] = xn = mol fraction of the nth substance listed; conditions: 303.15 K, 101 kPa, Liquid, x1 = 0.5; for viscosity: Capillary tube (Ostwald / Ubbelohde) method; for speed of sound: Frequency=2 MHz; for mass density: Pycnometric method

Row | viscosity [1] [mPa·s] | speed of sound [1] [m/s] | mass density [1] [kg/m3] | viscosity [2] [mPa·s] | speed of sound ([2]; variable-path interferometer) [m/s] | mass density [2] [kg/m3] | speed of sound ([2]; Linear variable-path acoustic interferometer) [m/s] | Compound
1 | 1.749 ± 0.17 | 1345.4 ± 2 | 1042 ± 4 |  |  |  |  | CCOC(=O)c1ccccc1 [ethyl benzoate]
2 |  |  |  | 1.679 ± 0.17 | 1261.4 ± 1.9 | 918.5 ± 4 |  | CCOC(=O)c1ccccc1 [ethyl benzoate] + CCCO
3 | 1.67 ± 0.17 | 1399.4 ± 2 | 1077 ± 4 |  |  |  |  | COC(=O)c1ccccc1 [methyl benzoate]
4 |  |  |  | 1.634 ± 0.16 |  | 944.5 ± 4 | 1296.6 ± 1.9 | COC(=O)c1ccccc1 [methyl benzoate] + CCCO

More lines, now with the values behind:

Row | Compound | viscosity [1] [mPa·s] | speed of sound [1] [m/s] | mass density [1] [kg/m3] | viscosity [2] [mPa·s] | speed of sound ([2]; variable-path interferometer) [m/s] | mass density [2] [kg/m3] | speed of sound ([2]; Linear variable-path acoustic interferometer) [m/s]
5 | CCCCO [butan-1-ol] | 2.054 ± 0.21 | 1228.4 ± 1.9 | 804 ± 4 |  |  |  | 
6 | CCCCCO [pentan-1-ol] | 3.012 ± 0.3 | 1252.4 ± 1.9 | 810 ± 4 |  |  |  | 
7 | CCCO [propan-1-ol] | 1.61 ± 0.16 | 1189.2 ± 1.9 | 798 ± 4 |  |  |  | 
